The target of experiment [1] is T1, CFTR in F508del/F508del primary CF hBE cells (Homo sapiens, UniProt P13569, DEL508-508).
T1 construct: Primary cystic fibrosis human bronchial epithelial (CF hBE) cells were expanded and cultured; endogenous in cells; host or cells: primary CF human bronchial epithelial cells, genotype F508del/F508del
As to the kind of experiment: Ussing chamber electrophysiology assay of CFTR potentiation in F508del/F508del CF bronchial epithelial cells (27° C.). Format: cell-based. The source says: • SHELXTL, Version 5.1, Bruker AXS, 1997. • PLATON, A. L. Spek, J. Appl. Cryst. 2003, 36, 7-13. • MERCURY, C. F. Macrae, P. R. Edington, P. McCabe, E. Pidcock, G. P. Shields, R. Taylor, M. Towler and J. van de Streek, J. Appl. Cryst. 39, 453-457, 2006. • OLEX2, Dolomanov, O. V.; Bourhis, L. J.; Gildea, R. J.; Howard, J. A. K.; Puschmann, H., (2009). J. Appl. Cryst., 42, 339-341. • R. W. W. Hooft et al. J. Appl. Cryst. (2008). 41. 96-103. • H. D. Flack, Acta Cryst. 1983, A39, 867-881. Using Chamber Electrophysiology Assay of CFTR Potentiation in CF Bronchial Epithelial Cells
Primary cystic fibrosis human bronchial epithelial (CF hBE) cells were expanded and cultured according to published methods (Neuberger et al., Ch. 4 of Cystic Fibrosis, Methods in Molecular Biology vol. 741, pp. 39-54 (2011)). Well-differentiated cells (>30 days at air/liquid interface) on Snapwell filters (Corning Costar, cat. no. 3801) were mounted in Ussing chambers (Physiologic Instruments, Inc., San Diego, CA). […] HEPES buffered physiological saline (composition (in mM): 137 NaCl, 4 KCl, 1 MgCl2, 1.8 CaCl2), 10 HEPES Na) was used in both apical and basolateral chambers. Chambers were bubbled with air to promote mixing and the voltage was clamped to zero. Amiloride (30 uM), forskolin (10 uM), test compound (4 increasing concentrations), and CFTRinh-172 (20 uM) were added sequentially with 20-25 minutes between additions. Short-circuit currents were acquired and analyzed using LabScribe2. Test compound responses were scaled relative to responses for DMSO (0%) and the maximal response of a positive control potentiator (100%).

Experiment [2] addresses T2, recombinant F508del V470 CFTR in Fischer rat thyroid (FRT) cells (Homo sapiens, UniProt P13569, DEL508-508).
T2 construct: expressed in transfected cells
As to the kind of experiment: FRT ion flux assay of F508del CFTR potentiation. The following applies: FRT cells expressing F508del V470 CFTR, forskolin 20 uM, 27° C. pre-incubation. The experiment is classed as cell-based. The procedure: FRT Ion Flux Assay of F508del CFTR Potentiation
Fischer rat thyroid (FRT) cell lines stably expressing recombinant F508del V470 CFTR and halide-sensitive yellow fluorescent protein (Pedemonte et al., J. Clin. Invest. 115(9) 2564-71 (2005)) were seeded at 25,000 cells/well in 50 uL/well of culture medium into black-walled, clear bottom tissue-culture-treated 384-well plates (Corning, cat. no. 3712). After one day, the cells were pre-incubated at 27° C./5% CO2 for 16-24 hours. The cells were then washed with dPBS and treated with forskolin (20 uM) and test compound for 30 mi by addition of 20 uL of compound dilution buffer (dPBS containing forskolin and test compound). Plates were loaded into FLIPR384 fluorescence imaging plate reader (Molecular Devices). After an initial fluorescence reading, iodide buffer (25 uL) (composition (in mM): 137 NaI, 1.5 K2PO4, 8.1 NaH2PO4, 2.7 KCl, 0.5 MgCl2, 1 CaCl2) was added and a second fluorescence reading was made after approximately 21 seconds. Data treatment involved division of the second fluorescence reading by the initial fluorescence reading, then scaling of the resulting normalized endpoint fluorescence with respect to the responses for DMSO (0%) and a positive control potentiator (100%).

Each structure is given as a SMILES string.

T1 sequence (P13569 with tags, fused parts or gaps DEL508-508): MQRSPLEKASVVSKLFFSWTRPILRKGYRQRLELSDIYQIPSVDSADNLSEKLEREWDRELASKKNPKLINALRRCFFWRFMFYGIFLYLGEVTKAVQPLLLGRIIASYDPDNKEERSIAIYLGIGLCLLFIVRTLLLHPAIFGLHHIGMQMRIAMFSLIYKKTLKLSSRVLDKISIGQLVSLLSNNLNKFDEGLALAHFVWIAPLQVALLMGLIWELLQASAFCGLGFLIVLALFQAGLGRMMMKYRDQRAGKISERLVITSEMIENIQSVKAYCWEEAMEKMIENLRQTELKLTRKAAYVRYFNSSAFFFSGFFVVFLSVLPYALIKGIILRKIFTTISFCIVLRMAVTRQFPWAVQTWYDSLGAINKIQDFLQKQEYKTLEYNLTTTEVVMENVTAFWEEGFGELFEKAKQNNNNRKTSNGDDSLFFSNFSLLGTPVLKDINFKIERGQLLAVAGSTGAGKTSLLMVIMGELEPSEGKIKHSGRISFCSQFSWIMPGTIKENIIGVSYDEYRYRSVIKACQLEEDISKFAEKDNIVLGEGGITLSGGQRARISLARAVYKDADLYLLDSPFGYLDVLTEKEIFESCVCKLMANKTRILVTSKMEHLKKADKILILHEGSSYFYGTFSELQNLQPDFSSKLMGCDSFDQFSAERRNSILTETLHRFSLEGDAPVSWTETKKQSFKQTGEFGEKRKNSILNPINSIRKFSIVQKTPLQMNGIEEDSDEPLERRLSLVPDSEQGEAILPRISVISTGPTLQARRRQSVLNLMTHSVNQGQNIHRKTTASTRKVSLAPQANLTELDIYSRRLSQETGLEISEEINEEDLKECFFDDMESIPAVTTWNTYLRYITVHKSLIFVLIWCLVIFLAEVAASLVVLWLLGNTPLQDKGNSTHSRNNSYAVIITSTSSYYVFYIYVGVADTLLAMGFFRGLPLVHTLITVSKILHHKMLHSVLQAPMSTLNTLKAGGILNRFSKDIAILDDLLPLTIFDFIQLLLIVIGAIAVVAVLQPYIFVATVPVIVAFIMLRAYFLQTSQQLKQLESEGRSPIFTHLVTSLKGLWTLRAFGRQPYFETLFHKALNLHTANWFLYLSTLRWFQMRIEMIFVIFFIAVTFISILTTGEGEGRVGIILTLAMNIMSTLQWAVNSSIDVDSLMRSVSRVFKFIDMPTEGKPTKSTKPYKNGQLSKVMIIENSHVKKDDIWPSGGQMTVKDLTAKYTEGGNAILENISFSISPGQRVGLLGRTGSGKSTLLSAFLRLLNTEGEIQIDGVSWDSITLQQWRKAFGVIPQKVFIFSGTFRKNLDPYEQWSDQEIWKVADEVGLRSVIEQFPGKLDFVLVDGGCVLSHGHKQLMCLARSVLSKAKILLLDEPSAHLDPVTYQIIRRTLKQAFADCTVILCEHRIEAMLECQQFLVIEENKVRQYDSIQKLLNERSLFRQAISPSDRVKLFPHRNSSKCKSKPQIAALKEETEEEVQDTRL
T2 sequence (P13569 with tags, fused parts or gaps DEL508-508): as above

As a reminder, the EC50 is the concentration at which the effect is half-maximal. As for `CC(c1cnn(-c2ccccc2F)c1)n1c(C#N)c(-c2cnc(C(F)F)nc2)c2c(N)ncnc21` (single isomer, unassigned) [Example 1, 4-Amino-5-[2-(difluoromethyl)pyrimidin-5-yl]-7-{1-[1-(2-fluorophenyl)-1H-pyrazol-4-yl]ethyl}-7H-pyrrolo[2,3-d]pyrimidine-6-carbonitrile], the EC50 in experiment [1] stood at 1.66 nM; in experiment [2], 0.55 nM.
Regarding `CC(c1cnn(-c2ccccc2F)c1)n1c(C#N)c(-c2cnc(C(F)F)nc2)c2c(N)ncnc21` (single isomer, unassigned) [Example 2, 4-Amino-5-[2-(difluoromethyl)pyrimidin-5-yl]-7-{1-[1-(2-fluorophenyl)-1H-pyrazol-4-yl]ethyl}-7H-pyrrolo[2,3-d]pyrimidine-6-carbonitrile], the EC50 in experiment [1] was 8.77 nM; in experiment [2], 7.51 nM.
As to `CCC(c1cnn(-c2ccccc2F)c1)n1c(C#N)c(-c2cnc(C(F)(F)F)nc2)c2c(N)ncnc21` (single isomer, unassigned) [Example 3, 4-Amino-7-{1-[1-(2-fluorophenyl)-1H-pyrazol-4-yl]propyl}-5-[2-(trifluoromethyl)pyrimidin-5-yl]-7H-pyrrolo[2,3-d] pyrimidine-6-carbonitrile], the EC50 in experiment [1] turned out to be 3.36 nM; in experiment [2], 9.17 nM.
Regarding `CCC(c1cnn(-c2ccccc2F)c1)n1c(C#N)c(-c2cnc(C(F)(F)F)nc2)c2c(N)ncnc21` (single isomer, unassigned) [Example 4, 4-Amino-7-{1-[1-(2-fluorophenyl)-1H-pyrazol-4-yl]propyl}-5-[2-(trifluoromethyl)pyrimidin-5-yl]-7H-pyrrolo[2,3-d] pyrimidine-6-carbonitrile], the EC50 in experiment [1] came out at 0.56 nM; in experiment [2], 0.61 nM.
The matching figures for `CC(c1cnn(-c2ccccc2F)c1)n1c(C#N)c(-c2cnc(C(F)(F)F)nc2)c2c(N)ncnc21` (single isomer, unassigned) [Example 5, 4-Amino-7-(1-(1-(2-fluorophenyl)-1H-pyrazol-4-yl)ethyl)-5-(2-(trifluoromethyl)pyrimidin-5-yl)-7H-pyrrolo[2,3-d] pyrimidine-6-carbonitrile]: 7.73 nM and 7.69 nM.
With `CC(c1cnn(-c2ccccc2F)c1)n1c(C#N)c(-c2cnc(C(F)(F)F)nc2)c2c(N)ncnc21` (single isomer, unassigned) [Example 6, 4-Amino-7-(1-(1-(2-fluorophenyl)-1H-pyrazol-4-yl)ethyl)-5-(2-(trifluoromethyl)pyrimidin-5-yl)-7H-pyrrolo[2,3-d] pyrimidine-6-carbonitrile], the EC50 in experiment [1] amounted to 1.19 nM; in experiment [2], 1.01 nM.
Regarding `CC(c1cnn(-c2ccc(F)cc2F)c1)n1c(C#N)c(-c2cnc(C(F)(F)F)nc2)c2c(N)ncnc21` (single isomer, unassigned) [Example 7, 4-Amino-7-{1-[1-(2,4-difluorophenyl)-1H-pyrazol-4-yl]ethyl}-5-[2-(trifluoromethyl)pyrimidin-5-yl]-7H-pyrrolo[2,3-d] pyrimidine-6-carbonitrile], the EC50 in experiment [1] is 1.84 nM; in experiment [2], 2.76 nM.
Regarding `CC(c1cc(-c2ccccc2F)no1)n1cc(-c2ccc3c(c2)OCCO3)c2c(N)ncnc21` (stereo not shown) [Example 102, 5-(2,3-Dihydro-1,4-benzodioxin-6-yl)-7-{1-[3-(2-fluorophenyl)-1,2-oxazol-5-yl]ethyl}-7H-pyrrolo[2,3-d]pyrimidin-4-amine], the EC50 in experiment [2] is 322 nM.
On the same count and under the same terms, next, `CC(c1cc(-c2ccccc2F)no1)n1cc(-c2ccnc3[nH]ccc23)c2c(N)ncnc21` (stereo not shown) [Example 103, 7-{1-[3-(2-Fluorophenyl)-1,2-oxazol-5-yl]ethyl}-5-(1H-pyrrolo[2,3-b]pyridin-4-yl)-7H-pyrrolo[2,3-d]pyrimidin-4-amine]: 5150 nM.
Consider `CC(c1cc(-c2ccccc2F)no1)n1cc(-c2ccc3nonc3c2)c2c(N)ncnc21` (stereo not shown) [Example 104, 5-(2,1,3-Benzoxadiazol-5-yl)-7-{1-[3-(2-fluorophenyl)-1,2-oxazol-5-yl]ethyl}-7H-pyrrolo[2,3-d]pyrimidin-4-amine], for which, in experiment [2], the EC50 was 331 nM.
Same read-out and setting: under `CC(c1cc(-c2ccccc2F)no1)n1cc(-c2cc3cnccc3s2)c2c(N)ncnc21` (stereo not shown) [Example 106, 7-{1-[3-(2-Fluorophenyl)-1,2-oxazol-5-yl]ethyl}-5-(thieno[3,2-c]pyridin-2-yl)-7H-pyrrolo[2,3-d]pyrimidin-4-amine] stands 2080 nM.
Regarding `CCC(c1cn(-c2ccc(F)c(F)c2)nn1)n1cc(-c2cncnc2OC)c2c(N)ncnc21` (stereo not shown) [Example 245, 7-{1-[1-(3,4-Difluorophenyl)-1H-1,2,3-triazol-4-yl]propyl}-5-[4-methoxypyrimidin-5-yl]-7H-pyrrolo[2,3-d] pyrimidin-4-amine], the EC50 in experiment [2] amounted to 42.4 nM.
On the same count and under the same terms, under `CCC(c1cn(-c2ccc(F)cc2F)nn1)n1cc(-c2cncnc2OC)c2c(N)ncnc21` (stereo not shown) [Example 246, 7-{1-[1-(2,4-Difluorophenyl)-1H-1,2,3-triazol-4-yl]propyl}-5-[4-methoxypyrimidin-5-yl]-7H-pyrrolo[2,3-d] pyrimidin-4-amine] stands 17.2 nM.
For `CC(c1cn(-c2ccccc2F)nn1)n1cc(C2COC2)c2c(N)ncnc21` (stereo not shown) [Example 250, 7-{1-[1-(2-Fluorophenyl)-1H-1,2,3-triazol-4-yl]ethyl}-5-(oxetan-3-yl)-7H-pyrrolo[2,3-d] pyrimidin-4-amine], the EC50 in experiment [2] came to 2200 nM.
Take `CCC(c1cn(-c2ccccc2F)nn1)n1cc(-c2nccnc2OC)c2c(N)ncnc21` (stereo not shown) [Example 251, 7-{1-[1-(2-Fluorophenyl)-1H-1,2,3-triazol-4-yl]propyl}-5-(3-methoxypyrazin-2-yl)-7H-pyrrolo [2,3-d]pyrimidin-4-amine]: the EC50 in experiment [2] came out at 5.41 nM.
Regarding `Nc1ncnc2c1c(-c1ccc(Cl)cc1)cn2Cc1cn(-c2ccccc2F)cn1` [Example 265, 5-(4-Chlorophenyl)-7-{[1-(2-fluorophenyl)-1H-imidazol-4-yl]methyl}-7H-pyrrolo[2,3-d]pyrimidin-4-amine], the EC50 in experiment [2] was 3880 nM.
Take `Nc1ncnc2c1c(-c1ccc(Cl)cc1)cn2Cc1cn(C2CCCC2)nn1` [Example 281, 5-(4-Chlorophenyl)-7-[(1-cyclopentyl-1H-1,2,3-triazol-4-yl)methyl]-7H-pyrrolo[2,3-d]pyrimidin-4-amine]: the EC50 in experiment [2] was 170 nM.
On to `Nc1ncnc2c1c(-c1ccc(Cl)cc1)cn2Cc1nnc(-c2ccccc2)[nH]1` [Example 284, 5-(4-Chlorophenyl)-7-[(5-phenyl-4H-1,2,4-triazol-3-yl)methyl]-7H-pyrrolo[2,3-d]pyrimidin-4-amine], for which, in experiment [1], the EC50 was 551 nM.
Regarding `Nc1ncnc2c1c(C1CN(C(=O)C3CC3)C1)cn2Cc1cn(-c2ccccc2F)nn1` [Example 292, [3-(4-Amino-7-{[1-(2-fluorophenyl)-1H-1,2,3-triazol-4-yl]methyl}-7H-pyrrolo[2,3-d]pyrimidin-5-yl)azetidin-1-yl](cyclopropyl) methanone], the EC50 in experiment [2] came to 3210 nM.
Turning to `Nc1ncnc2c1c(C1CN(S(=O)(=O)CC3CC3)C1)cn2Cc1cn(-c2ccccc2F)nn1` [Example 293, 5-{1-[(Cyclopropylmethyl)sulfonyl]azetidin-3-yl}-7-{[1-(2-fluorophenyl)-1H-1,2,3-triazol-4-yl]methyl}-7H-pyrrolo[2,3-d]pyrimidin-4-amine], the EC50 in experiment [2] was determined as 1890 nM.
In the case of `Nc1ncnc2c1c(-c1ccc(Cl)cc1)c(Br)n2Cc1cn(-c2cccc(F)c2)nn1` [Example 319, 6-Bromo-5-(4-chlorophenyl)-7-{[1-(3-fluorophenyl)-1H-1,2,3-triazol-4-yl]methyl}-7H-pyrrolo[2,3-d]pyrimidin-4-amine], in experiment [2], the EC50 is 194 nM.
